How the values were obtained:
Human recombinant CYP2J2 [1] = molecular target: T1, Human recombinant CYP2J2 (Homo sapiens, UniProt P51589); assay: Inhibition activity of Piperine derivatives towards CYP2J2 (BnXPI probe, IC50); assay type: biochemical; settings: for IC50: CYP2J2 3.75 pmol/mL, BnXPI 4 μM, 30 min, triplicate, mean ± SD, read-out: Inhibitory activity (IC50) CYP2J2; for increase of inhibition activity compared with Piperine: IC50 versus Piperine
T1 construct: purchased Cypex (Scotland, UK)
T1 sequence (P51589 1-502): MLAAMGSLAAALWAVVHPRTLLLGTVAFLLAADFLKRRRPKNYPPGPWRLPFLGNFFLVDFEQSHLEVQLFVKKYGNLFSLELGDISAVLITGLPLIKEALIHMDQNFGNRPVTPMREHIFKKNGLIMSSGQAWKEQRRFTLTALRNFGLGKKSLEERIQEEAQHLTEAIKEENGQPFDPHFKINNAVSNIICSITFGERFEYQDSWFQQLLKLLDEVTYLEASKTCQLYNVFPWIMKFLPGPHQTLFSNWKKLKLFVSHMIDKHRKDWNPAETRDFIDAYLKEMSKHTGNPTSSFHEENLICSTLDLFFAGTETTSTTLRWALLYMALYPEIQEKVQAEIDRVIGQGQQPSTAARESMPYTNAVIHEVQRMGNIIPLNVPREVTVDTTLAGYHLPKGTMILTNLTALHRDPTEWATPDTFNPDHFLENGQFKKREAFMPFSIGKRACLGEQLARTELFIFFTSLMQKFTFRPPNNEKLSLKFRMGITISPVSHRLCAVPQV
Procedure: In our previous study, BnXPI was developed to be the first selective fluorescent probe for CYP2J2[24]. Thus, with the help of the fast and sensitive advantages of fluorescence technology, the potential inhibitory effect of 108 herbal medicines (Table S1) towards CYP2J2 was screened. In brief, in the standard incubation system (100 mM phosphoric acid buffer, pH 7.4, NADPH generate system, BnXPI and extract of herbal medicines), BnXPI was set at 4 μM, and the concentration of CYP2J2 was 0.01 nmol/mL, after the pre-incubation of BnXPI and herbal medicines (final concentration was 20 μg/mL) for 3 min, NADP^+ was added to initiate the reaction. After additional 30 min (mins) incubation, 100 μL ice acetonitrile was added to terminate the reaction and followed a 20000 g centrifugation at 4 °C, the supernatant was collected and assay on a Synergy H1 Microplate Reader (Bio-Tek). The blank solvent replaces the extract of herbal medicines was set as the control group. According to the screening method mentioned above, various concentration of Piperine derivatives were added into our standard incubation system and incubated with CYP2J2, probe BnXPI for 30 min. The concentration of CYP2J2 was set at 3.75 pmol/mL, the concentration of BnXPI was 4 μM. The control group was added blank solvent instead of the inhibitors.

Human recombinant CYP2J2 [2] = molecular target: T1, Human recombinant CYP2J2; assay: Inhibition kinetic study towards CYP2J2 (Lineweaver-Burk and Dixon plots); assay type: biochemical; settings: for Ki: BnXPI 0–8 μM; for inhibition type towards CYP2J2: intersection point in Lineweaver–Burk plot
Procedure: In order to clarify the inhibition type of compound 9a, 9k, and 9l towards CYP2J2, the inhibition kinetics were also performed. Briefly, the inhibition activity of target compounds towards the metabolism kinetic of BnPXI (0–8 μM) mediated by CYP2J2 was determinated under the different concentrations of inhibitors. At last, Lineweaver–Burk and Dixon plots were used to fit the data as previously described[25]^,[26]. The inhibition kinetic type was evaluated by determining the intersection point in the Lineweaver–Burk plots. […] (1) v=Vmax/1+Km/[S](1+[I]/Ki) (2) v=Vmax/(1+Km/[S])(1+[I]/Ki) (3) v=Vmax/(1+Km/[S]+[I]/Ki) (4) v=Vmax/Km/[S](1+[I]/Ki)+(1+[I]/αKi)

**Q.** `O=C(/C=C/C=C/c1ccc2c(c1)OCO2)N1CCCCC1` [9a, (2E,4E)-5-(benzo[d][1,3]dioxol-5-yl)-1-(piperidin-1-yl)penta-2,4-dien-1-one] was tested. Which IC50 (Human recombinant CYP2J2 [1]) did it give?
**A.** The IC50 was 0.44 ± 0.05 µM.

**Q.** What about the Ki (Human recombinant CYP2J2 [2]) of the same compound?
**A.** The Ki was 0.5 µM.

**Q.** How did the IC50 (Human recombinant CYP2J2 [1]) turn out when `O=C(/C=C/C=C/c1ccc2c(c1)OCO2)NC1CC1` [9b, (2E,4E)-5-(benzo[d][1,3]dioxol-5-yl)-N-cyclopropylpenta-2,4-dienamide] was run?
**A.** Its IC50 is 4.72 ± 0.73 µM.

**Q.** With `O=C(/C=C/C=C/c1ccc2c(c1)OCO2)N1CCCC1` [9c, (2E,4E)-5-(benzo[d][1,3]dioxol-5-yl)-1-(pyrrolidin-1-yl)penta-2,4-dien-1-one] as the compound, how does the IC50 (Human recombinant CYP2J2 [1]) read?
**A.** Its IC50 is 1.58 ± 0.22 µM.

**Q.** `O=C(/C=C/C=C/c1ccc2c(c1)OCO2)NC12CC3CC(CC(C3)C1)C2` [9d, (2E,4E)-N-((3s,5s,7s)-adamantan-1-yl)-5-(benzo[d][1,3]dioxol-5-yl)penta-2,4-dienamide] was tested. Which IC50 (Human recombinant CYP2J2 [1]) did it give?
**A.** Its IC50 is 9.33 ± 1.06 µM.

**Q.** Which IC50 (Human recombinant CYP2J2 [1]) does the source give for `O=C(/C=C/C=C/c1ccc2c(c1)OCO2)N1CCOCC1` [9e, (2E,4E)-5-(benzo[d][1,3]dioxol-5-yl)-1-morpholinopenta-2,4-dien-1-one] here?
**A.** Its IC50 is 12 ± 1.35 µM.

**Q.** For `C[C@@H]1COCCN1C(=O)/C=C/C=C/c1ccc2c(c1)OCO2` [9f, (2E,4E)-5-(benzo[d][1,3]dioxol-5-yl)-1-((R)-3-methylmorpholino)penta-2,4-dien-1-one], which IC50 (Human recombinant CYP2J2 [1]) is on record?
**A.** The IC50 was 4.66 ± 0.56 µM.

**Q.** `C[C@H]1COCCN1C(=O)/C=C/C=C/c1ccc2c(c1)OCO2` [9g, (2E,4E)-5-(benzo[d][1,3]dioxol-5-yl)-1-((S)-3-methylmorpholino)penta-2,4-dien-1-one] was tested. Which IC50 (Human recombinant CYP2J2 [1]) did it give?
**A.** Its IC50 is 2.25 ± 0.56 µM.

**Q.** Which IC50 (Human recombinant CYP2J2 [1]) does the source give for `O=C(/C=C/C=C/c1ccc2c(c1)OCO2)N1CCSCC1` [9h, (2E,4E)-5-(benzo[d][1,3]dioxol-5-yl)-1-thiomorpholinopenta-2,4-dien-1-one] here?
**A.** The IC50 was 0.75 ± 0.08 µM.

**Q.** With `O=C(/C=C/C=C/c1ccc2c(c1)OCO2)N1CCS(=O)(=O)CC1` [9i, (2E,4E)-5-(benzo[d][1,3]dioxol-5-yl)-1–(1,1-dioxidothiomorpholino)penta-2,4-dien-1-one] as the compound, how does the IC50 (Human recombinant CYP2J2 [1]) read?
**A.** Its IC50 is 1.24 ± 0.45 µM.

**Q.** `CN(C)CCNC(=O)/C=C/C=C/c1ccc2c(c1)OCO2` [9j, (2E,4E)-5-(benzo[d][1,3]dioxol-5-yl)-N-(2-(dimethylamino)ethyl)penta-2,4-dienamide] was tested. Which IC50 (Human recombinant CYP2J2 [1]) did it give?
**A.** The IC50 was 11.8 ± 1.47 µM.

**Q.** Which results are given for `CC(C)CN(CC(C)C)C(=O)/C=C/C=C/c1ccc2c(c1)OCO2` [9k, (2E,4E)-5-(benzo[d][1,3]dioxol-5-yl)-N,N-diisobutylpenta-2,4-dienamide]?
**A.** IC50 (Human recombinant CYP2J2 [1]): 0.04 ± 0.008 µM; increase of inhibition activity compared with Piperine (Human recombinant CYP2J2 [1]): about 10 folds; Ki (Human recombinant CYP2J2 [2]): 0.11 µM; inhibition type towards CYP2J2 (Human recombinant CYP2J2 [2]): competitive inhibition model

**Q.** Which results are given for `O=C(/C=C/C=C/c1ccc2c(c1)OCO2)NCc1ccc(F)cc1` [9l, (2E,4E)-5-(benzo[d][1,3]dioxol-5-yl)-N-(4-fluorobenzyl)penta-2,4-dienamide]?
**A.** IC50 (Human recombinant CYP2J2 [1]): 0.05 ± 0.005 µM; increase of inhibition activity compared with Piperine (Human recombinant CYP2J2 [1]): about 10 folds; Ki (Human recombinant CYP2J2 [2]): 0.074 µM; inhibition type towards CYP2J2 (Human recombinant CYP2J2 [2]): competitive inhibition model

— paper PMC7946002, “The development of novel cytochrome P450 2J2 (CYP2J2) inhibitor and the underlying interaction between inhibitor and CYP2J2” (Journal of Enzyme Inhibition and Medicinal Chemistry, 2021)
